Experimental data taken from ChEMBL document CHEMBL6153170 (J Med Chem, 2025).
Converted amounts (≈) assume the structure as drawn. The source made the active and inactive calls. The rule behind the calls is not given here.

What was measured:
B16-F10 [1] = assay: Antitumor immunity activity against mouse B16-F10 cells implanted in C57BL/6 mouse model assessed as CD3+ CD4+ T cell percentage in tumor at 20 mg/kg/day, ip administered for 14 days by flow cytometric analysis (reference value: 0.095 %); type: functional; settings: time 14 day
B16-F10 [2] = assay: Effect on HDAC6 protein level in mouse B16-F10 cells at 0.1 to 2 uM incubated for 12 hrs by Western blot analysis; type: functional, cell-based; settings: dose 0.1-2 µM
[3] = Oral bioavailability in male Sprague-Dawley rat at 10 mg/kg measured after 48 hrs by triple quadrupole mass spectrometric analysis; type: ADME, organism-based; settings: in vivo
[4] = Tmax in male Sprague-Dawley rat at 10 mg/kg, po measured after 48 hrs by triple quadrupole mass spectrometric analysis; type: ADME, organism-based; settings: in vivo
[5] = Aqueous solubility of compound incubated for 24 hrs by miniaturized shake flask based HPLC analysis; type: physicochemical; settings: buffer
[6] = Toxicity in C57BL/6 mouse model implanted with mouse B16-F10 cells assessed as body weight loss at 20 mg/kg/day, ip administered for 14 days; type: organism-based; settings: in vivo, 336 h, time 14 day
[7] = Toxicity in C57 mouse assessed as myelosuppression by measuring lymphocytes level at 20 mg/kg/day, IG administered for 14 days by heat map analysis; type: organism-based; settings: in vivo, po, 336 h, time 14 day
[8] = AUC (0 to t) in male Sprague-Dawley rat at 10 mg/kg, po measured after 48 hrs by triple quadrupole mass spectrometric analysis; type: ADME, organism-based; settings: in vivo
[9] = Toxicity in C57BL/6 mouse model implanted with mouse B16-F10 cells assessed as morphological changes in kidney at 20 mg/kg/day, ip administered for 14 days by H and E staining based analysis; type: organism-based; settings: in vivo, 336 h, time 14 day

- bioavailability [3]: 15.3%
- Tmax [4]: 5.55 h
- solubility thermodynamic at 24 h [5]: 57 µg/mL (≈ 127 µM)
- AUC(0-t) at 48 h [8]: 872 ng·h/mL
Structure (SMILES): COc1nc(-c2cccc(-c3ccccc3)c2C)ccc1CNCCCCCCC(=O)NO
- Activity (B16-F10 [1]): 11.5%
- Activity (B16-F10 [2]): inactive
- Activity [6]: Non-toxic
- Activity [7]: Non-toxic
- Activity [9]: Non-toxic
